For orientation: IC50 means the concentration at which inhibition is half-maximal.

Like-named read-outs stand apart in the source and are kept apart here.

Data set [1] has as its target T1, purified recombinant human PARP (Homo sapiens, UniProt P09874).
T1 construct: purchased Trevigen (Gaithersburg, Md.)
Put plainly: PARP enzyme assay using purified recombinant human PARP, [3H]NAD incorporation. The data set is classed as biochemical. The note with it: 25° C., 15 minutes, 3.0 micromolar [3H]NAD, read-out: Approximate IC50's. The protocol:
The reaction is initiated by incubating the mixture at 25° C. After 15 minutes' incubation, the reaction is terminated by adding 500 microliters of ice cold 20% (w/v) trichloroacetic acid. The precipitate formed is transferred onto a glass fiber filter (Packard Unifilter-GF/B) and washed three times with ethanol. After the filter is dried, the radioactivity is determined by scintillation counting.

In data set [2] the test system is ischemia and reperfusion of the heart. The following applies: rabbits, cited from earlier work.
Data set [3] deals with PARP. The note with it: read-out: IC50 for inhibiting PARP; reported by Suto et al.; cited from earlier work.
Data set [4] deals with cell viability, glucose metabolism, and DNA synthesis. The note with it: Milam et al., Science 1984; cited from earlier work.

T1 sequence (P09874 whole entry): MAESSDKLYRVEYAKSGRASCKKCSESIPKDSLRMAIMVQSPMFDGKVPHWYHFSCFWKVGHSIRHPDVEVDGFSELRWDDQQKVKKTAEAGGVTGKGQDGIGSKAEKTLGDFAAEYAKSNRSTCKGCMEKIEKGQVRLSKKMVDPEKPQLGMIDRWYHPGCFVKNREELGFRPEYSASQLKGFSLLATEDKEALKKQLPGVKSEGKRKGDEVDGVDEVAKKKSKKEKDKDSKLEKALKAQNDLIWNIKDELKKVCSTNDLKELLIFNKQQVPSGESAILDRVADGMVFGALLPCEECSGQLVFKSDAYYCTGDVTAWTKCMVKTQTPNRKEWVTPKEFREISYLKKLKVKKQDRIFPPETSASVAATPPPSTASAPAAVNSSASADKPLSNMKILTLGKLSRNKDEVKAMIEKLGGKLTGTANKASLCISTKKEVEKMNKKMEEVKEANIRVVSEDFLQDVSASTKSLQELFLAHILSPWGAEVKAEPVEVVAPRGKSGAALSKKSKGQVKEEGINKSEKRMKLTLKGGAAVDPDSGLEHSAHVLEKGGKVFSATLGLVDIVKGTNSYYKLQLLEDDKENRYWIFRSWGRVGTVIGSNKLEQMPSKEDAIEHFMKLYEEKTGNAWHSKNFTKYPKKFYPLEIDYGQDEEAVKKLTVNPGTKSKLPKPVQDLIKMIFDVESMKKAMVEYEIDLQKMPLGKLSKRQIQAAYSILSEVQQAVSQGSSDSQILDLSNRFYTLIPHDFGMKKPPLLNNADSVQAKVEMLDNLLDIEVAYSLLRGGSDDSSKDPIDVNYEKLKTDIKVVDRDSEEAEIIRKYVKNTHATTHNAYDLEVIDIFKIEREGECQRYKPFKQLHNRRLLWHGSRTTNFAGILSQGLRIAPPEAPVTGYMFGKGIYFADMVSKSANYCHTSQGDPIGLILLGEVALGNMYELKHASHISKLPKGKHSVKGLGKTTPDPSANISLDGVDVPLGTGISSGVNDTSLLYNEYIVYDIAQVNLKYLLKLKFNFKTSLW

Turning to `O=c1[nH]cc([N+](=O)[O-])c2ccccc12`, the IC50 in data set [1] amounted to 5 µM.
With `O=c1[nH]c(-c2ccccc2)cc2ccccc12`, the IC50 in data set [1] (unit μm [sic]) came to 30 µM.
On to `O=C(O)c1c[nH]c(=O)c2ccccc12`, for which the half-maximal inhibitory concentration (IC50) in data set [1] is 10 µM.
For the molecule `O=c1[nH]ccc2c([N+](=O)[O-])cccc12`, the IC50 in data set [1] was found to be 10 µM.
As to `COC(=O)c1c[nH]c(=O)c2ccccc12`, in data set [1], the IC50 was 0.8 µM.
With `Oc1cccc2c(O)nccc12` [1,5-dihydroxyisoquinoline], the “reduction in infarct size” value in data set [2] (single injection 1 mg/kg) is on record as 38-48%.
As for `O=C1NCCc2c(OCCCCN3CCCCC3)cccc21` [3,4-dihydro-5-[4-(1-piperidinyl)butoxy]1(2H)-isoquinolinone], the concentration for half-maximal inhibition (IC50) in data set [3] was 0.04 µM.
Consider `NC(=O)c1cccc(N)c1` [3-aminobenzamide], for which, in data set [4], the “side effects on other metabolic processes” value is “affect cell viability, glucose metabolism, and DNA synthesis”. Moreover, the “reduction in infarct size in the heart” value in data set [2] (single injection 10 mg/kg, one minute before occlusion or one minute before reperfusion) was 32-42%.
Turning to `NC(=O)c1ccccc1` [benzamide], the “side effects on other metabolic processes” value in data set [4] is “affect cell viability, glucose metabolism, and DNA synthesis”.

The values are drawn from US6346536B1, “Poly(ADP-ribose) polymerase inhibitors and method for treating neural or cardiovascular tissue damage using the same” (Guilford Pharmaceuticals Inc., priority 1997, dated 2002).
